Measured values published in ChEMBL document CHEMBL4359906, “Design and synthesis of new N-terminal fatty acid modified-antimicrobial peptide analogues with potent in vitro biological activity” (Eur J Med Chem, 2019).
The source made the active and inactive calls. No cut-off for these calls is given here.

Tests used:
[1] = tested on: Staphylococcus aureus; assay: Antibacterial activity against Staphylococcus aureus ATCC 25923 after 18 hrs in presence of FeCl3 by CLSI based broth microdilution method (reference value: 16 microM); type: functional; settings: ATCC 25923, 18 h
[2] = tested on: Staphylococcus aureus; assay: Antibacterial activity against Staphylococcus aureus ATCC 25923 after 18 hrs in presence of NaCl by CLSI based broth microdilution method (reference value: 16 microM); type: functional; settings: ATCC 25923, 18 h
[3] = tested on: Staphylococcus aureus; assay: Antibacterial activity against Staphylococcus aureus ATCC 25923 after 18 hrs in presence of MgCl2 by CLSI based broth microdilution method (reference value: 16 microM); type: functional; settings: ATCC 25923, 18 h
[4] = tested on: Escherichia coli; assay: Antibacterial activity against Escherichia coli ATCC 25922 after 18 hrs in presence of KCl by CLSI based broth microdilution method (reference value: 4 microM); type: functional; settings: ATCC 25922, 18 h
[5] = tested on: RAW264.7; assay: Cytotoxicity against mouse RAW264.7 cells assessed as cell proliferation at 16 uM after 1 hr by MTT assay; type: cell-based; settings: raw264.7, 1 h
[6] = tested on: Escherichia coli; assay: Antibacterial activity against Escherichia coli ATCC 25922 after 18 hrs in presence of MgCl2 by CLSI based broth microdilution method (reference value: 4 microM); type: functional; settings: ATCC 25922, 18 h
[7] = tested on: Escherichia coli; assay: Antimicrobial activity against Escherichia coli ATCC 25922 preincubated for 1 hr in presence of 10% mouse serum and measured after 18 hrs by CLSI-based broth microdilution assay (reference value: 4 microM); type: functional
[8] = tested on: Escherichia coli; assay: Antibacterial activity against Escherichia coli ATCC 25922 after 18 hrs in presence of NaCl by CLSI based broth microdilution method (reference value: 4 microM); type: functional; settings: ATCC 25922, 18 h
[9] = tested on: Escherichia coli; assay: Antimicrobial activity against Escherichia coli ATCC 25922 preincubated for 6 hrs in presence of 10% mouse serum and measured after 18 hrs by CLSI-based broth microdilution assay (reference value: 4 microM); type: functional
[10] = tested on: Escherichia coli; assay: Antibacterial activity against Escherichia coli ATCC 25922 after 18 hrs in presence of NaCl by CLSI based broth microdilution method (reference value: 64 microM); type: functional; settings: ATCC 25922, 18 h
[11] = tested on: Escherichia coli; assay: Antibacterial activity against Escherichia coli ATCC 25922 after 18 hrs in presence of MgCl2 by CLSI based broth microdilution method (reference value: 64 microM); type: functional; settings: ATCC 25922, 18 h
[12] = tested on: Staphylococcus aureus; assay: Antibacterial activity against Staphylococcus aureus ATCC 25923 after 18 hrs in presence of KCl by CLSI based broth microdilution method (reference value: 32 microM); type: functional; settings: ATCC 25923, 18 h
[13] = tested on: Escherichia coli; assay: Antibacterial activity against Escherichia coli ATCC 25922 after 18 hrs in presence of FeCl3 by CLSI based broth microdilution method (reference value: 64 microM); type: functional; settings: ATCC 25922, 18 h
[14] = tested on: Escherichia coli; assay: Antimicrobial activity against Escherichia coli ATCC 25922 preincubated for 6 hrs in presence of 10% mouse serum and measured after 18 hrs by CLSI-based broth microdilution assay (reference value: 64 microM); type: functional
[15] = tested on: Staphylococcus aureus; assay: Antibacterial activity against Staphylococcus aureus ATCC 25923 after 18 hrs in presence of NaCl by CLSI based broth microdilution method (reference value: 32 microM); type: functional; settings: ATCC 25923, 18 h
[16] = tested on: Staphylococcus aureus; assay: Antibacterial activity against Staphylococcus aureus ATCC 25923 after 18 hrs in presence of MgCl2 by CLSI based broth microdilution method (reference value: 32 microM); type: functional; settings: ATCC 25923, 18 h
[17] = tested on: Escherichia coli; assay: Antimicrobial activity against Escherichia coli ATCC 25922 preincubated for 1 hr in presence of 10% mouse serum and measured after 18 hrs by CLSI-based broth microdilution assay (reference value: 64 microM); type: functional
[18] = tested on: Escherichia coli; assay: Antibacterial activity against Escherichia coli ATCC 25922 after 18 hrs in presence of KCl by CLSI based broth microdilution method (reference value: 64 microM); type: functional; settings: ATCC 25922, 18 h
[19] = tested on: Staphylococcus aureus; assay: Antibacterial activity against Staphylococcus aureus ATCC 25923 after 18 hrs in presence of FeCl3 by CLSI based broth microdilution method (reference value: 32 microM); type: functional; settings: ATCC 25923, 18 h
[20] = Cytotoxicity against mouse RAW264.7 cells assessed as cell proliferation at 8 uM after 1 hr by MTT assay relative to control; type: cell-based; settings: read-out: Activity
[21] = tested on: Staphylococcus aureus; assay: Antibacterial activity against Staphylococcus aureus ATCC 25923 after 18 hrs in presence of FeCl3 by CLSI based broth microdilution method (reference value: 4 microM); type: functional; settings: ATCC 25923, 18 h
[22] = tested on: Pseudomonas aeruginosa; assay: Antibiofilm activity against Pseudomonas aeruginosa ATCC 27853 at 1 to 2 times of MIC after 24 hrs by crystal violet staining based assay; type: functional, organism-based
[23] = tested on: Staphylococcus aureus; assay: Antibacterial activity against Staphylococcus aureus ATCC 25923 after 18 hrs in presence of NaCl by CLSI based broth microdilution method (reference value: 4 microM); type: functional; settings: ATCC 25923, 18 h
[24] = tested on: Staphylococcus aureus; assay: Antibacterial activity against Staphylococcus aureus ATCC 25923 after 18 hrs in presence of KCl by CLSI based broth microdilution method (reference value: 4 microM); type: functional; settings: ATCC 25923, 18 h
[25] = tested on: Staphylococcus aureus; assay: Antibacterial activity against Staphylococcus aureus ATCC 25923 after 18 hrs in presence of MgCl2 by CLSI based broth microdilution method (reference value: 4 microM); type: functional; settings: ATCC 25923, 18 h
[26] = tested on: Pseudomonas aeruginosa; assay: Antibiofilm activity against Pseudomonas aeruginosa ATCC 27853 at 2 times of MIC after 24 hrs by crystal violet staining based assay; type: functional, organism-based
[27] = Cytotoxicity against mouse RAW264.7 cells assessed as cell proliferation at 16 uM after 1 hr by MTT assay relative to control; type: cell-based; settings: read-out: Activity
[28] = tested on: DNA; assay: Binding affinity to Escherichia coli ATCC 25922 genomic DNA at 1 x MIC after 30 mins by agarose gel electrophoresis; type: nucleic-acid assay
[29] = tested on: Escherichia coli; assay: Antimicrobial activity against Escherichia coli ATCC 25922 at 1 mM preincubated for 6 hrs in presence of 2000 ug/ml chymotrypsin and measured after 18 hrs by microplate reader analysis; type: functional, organism-based
[30] = tested on: DNA; assay: Binding affinity to Escherichia coli ATCC 25922 genomic DNA at 8 x MIC after 30 mins by agarose gel electrophoresis; type: nucleic-acid assay
[31] = tested on: Staphylococcus aureus; assay: Antibacterial activity against Staphylococcus aureus ATCC 25923 after 18 hrs in presence of NaCl by CLSI based broth microdilution method (reference value: 128 microM); type: functional; settings: ATCC 25923, 18 h
[32] = tested on: Staphylococcus aureus; assay: Antibacterial activity against Staphylococcus aureus ATCC 25923 after 18 hrs in presence of FeCl3 by CLSI based broth microdilution method (reference value: 128 microM); type: functional; settings: ATCC 25923, 18 h
[33] = tested on: DNA; assay: Binding affinity to Escherichia coli ATCC 25922 genomic DNA at 0.5 x MIC after 30 mins by agarose gel electrophoresis; type: nucleic-acid assay
[34] = tested on: Staphylococcus aureus; assay: Antibacterial activity against Staphylococcus aureus ATCC 25923 after 18 hrs in presence of MgCl2 by CLSI based broth microdilution method (reference value: 64 microM); type: functional; settings: ATCC 25923, 18 h
[35] = tested on: Staphylococcus aureus; assay: Antibacterial activity against Staphylococcus aureus ATCC 25923 after 18 hrs in presence of NaCl by CLSI based broth microdilution method (reference value: 64 microM); type: functional; settings: ATCC 25923, 18 h
[36] = tested on: Staphylococcus aureus; assay: Antibacterial activity against Staphylococcus aureus ATCC 25923 after 18 hrs in presence of FeCl3 by CLSI based broth microdilution method (reference value: 64 microM); type: functional; settings: ATCC 25923, 18 h

CCCCCCCC(=O)NC(Cc1cn(CCCC[C@H](NC(C)=O)C(=O)NCC(=O)N[C@@H](CC(C)C)C(=O)N[C@@H](CC(C)C)C(=O)N[C@H](CCCCN)C(=O)N[C@@H](CCCNC(=N)N)C(=O)N[C@H](C(=O)N[C@H](CCCCN)C(=O)N[C@H](C(=O)N[C@@H](CC(C)C)C(=O)N[C@@H](CC(C)C)C(N)=O)[C@@H](C)O)[C@@H](C)CC)nn1)C(=O)NCC(=O)N[C@@H](CC(C)C)C(=O)N[C@@H](CC(C)C)C(=O)N[C@H](CCCCN)C(=O)N[C@@H](CCCNC(=N)N)C(=O)N[C@H](C(=O)N[C@H](CCCCN)C(=O)N[C@H](C(=O)N[C@@H](CC(C)C)C(=O)N[C@@H](CC(C)C)C(N)=O)[C@@H](C)O)[C@@H](C)CC (stereo partly specified)
MIC [1]: 8 µM | MIC [2]: 32 µM | MIC [3]: 16 µM | MIC [4]: 16 µM | Activity [5]: Toxic | MIC [6]: 16 µM | MIC [7]: 8 µM | MIC [8]: 8 µM | MIC [9]: 16 µM

CCCCCCCC(=O)NCC(=O)N[C@@H](CC(C)C)C(=O)N[C@@H](CC(C)C)C(=O)N[C@H](CCCCN)C(=O)N[C@@H](CCCNC(=N)N)C(=O)N[C@H](C(=O)N[C@H](CCCCN)C(=O)N[C@H](C(=O)N[C@@H](CC(C)C)C(=O)N[C@@H](CC(C)C)C(N)=O)[C@@H](C)O)[C@@H](C)CC
MIC [10]: 64 µM | MIC [11]: 64 µM | MIC [12]: 64 µM | MIC [13]: 32 µM | MIC [14]: 64 µM | MIC [15]: 128 µM | MIC [16]: 64 µM | MIC [17]: 64 µM | MIC [18]: 32 µM | MIC [19]: 32 µM

CCCCCCCCCCCC(=O)NCC(=O)N[C@@H](CC(C)C)C(=O)N[C@@H](CC(C)C)C(=O)N[C@H](CCCCN)C(=O)N[C@@H](CCCNC(=N)N)C(=O)N[C@H](C(=O)N[C@H](CCCCN)C(=O)N[C@H](C(=O)N[C@@H](CC(C)C)C(=O)N[C@@H](CC(C)C)C(N)=O)[C@@H](C)O)[C@@H](C)CC
viability at 1 h, 8 µM [20]: < 80% | MIC [21]: 8 µM | inhibition [22]: Active | MIC [23]: 4 µM | MIC [24]: 4 µM | MIC [25]: 8 µM

CCCCCCCCCC(=O)NCC(=O)N[C@@H](CC(C)C)C(=O)N[C@@H](CC(C)C)C(=O)N[C@H](CCCCN)C(=O)N[C@@H](CCCNC(=N)N)C(=O)N[C@H](C(=O)N[C@H](CCCCN)C(=O)N[C@H](C(=O)N[C@@H](CC(C)C)C(=O)N[C@@H](CC(C)C)C(N)=O)[C@@H](C)O)[C@@H](C)CC
inhibition [26]: Active | viability at 1 h, 16 µM [27]: < 80%

CCCCCCCCCCCC(=O)NC(Cc1cn(CCCC[C@H](NC(C)=O)C(=O)NCC(=O)N[C@@H](CC(C)C)C(=O)N[C@@H](CC(C)C)C(=O)N[C@H](CCCCN)C(=O)N[C@@H](CCCNC(=N)N)C(=O)N[C@H](C(=O)N[C@H](CCCCN)C(=O)N[C@H](C(=O)N[C@@H](CC(C)C)C(=O)N[C@@H](CC(C)C)C(N)=O)[C@@H](C)O)[C@@H](C)CC)nn1)C(=O)NCC(=O)N[C@@H](CC(C)C)C(=O)N[C@@H](CC(C)C)C(=O)N[C@H](CCCCN)C(=O)N[C@@H](CCCNC(=N)N)C(=O)N[C@H](C(=O)N[C@H](CCCCN)C(=O)N[C@H](C(=O)N[C@@H](CC(C)C)C(=O)N[C@@H](CC(C)C)C(N)=O)[C@@H](C)O)[C@@H](C)CC (stereo partly specified)
Activity [28]: Dose-dependent effect | Activity [29]: Active | Activity [30]: inactive

CCCC(=O)NC(Cc1cn(CCCC[C@H](NC(C)=O)C(=O)NCC(=O)N[C@@H](CC(C)C)C(=O)N[C@@H](CC(C)C)C(=O)N[C@H](CCCCN)C(=O)N[C@@H](CCCNC(=N)N)C(=O)N[C@H](C(=O)N[C@H](CCCCN)C(=O)N[C@H](C(=O)N[C@@H](CC(C)C)C(=O)N[C@@H](CC(C)C)C(N)=O)[C@@H](C)O)[C@@H](C)CC)nn1)C(=O)NCC(=O)N[C@@H](CC(C)C)C(=O)N[C@@H](CC(C)C)C(=O)N[C@H](CCCCN)C(=O)N[C@@H](CCCNC(=N)N)C(=O)N[C@H](C(=O)N[C@H](CCCCN)C(=O)N[C@H](C(=O)N[C@@H](CC(C)C)C(=O)N[C@@H](CC(C)C)C(N)=O)[C@@H](C)O)[C@@H](C)CC (stereo partly specified)
MIC [31]: > 128 µM | MIC [32]: 128 µM | Activity [33]: inactive

CCCCCC(=O)NC(Cc1cn(CCCC[C@H](NC(C)=O)C(=O)NCC(=O)N[C@@H](CC(C)C)C(=O)N[C@@H](CC(C)C)C(=O)N[C@H](CCCCN)C(=O)N[C@@H](CCCNC(=N)N)C(=O)N[C@H](C(=O)N[C@H](CCCCN)C(=O)N[C@H](C(=O)N[C@@H](CC(C)C)C(=O)N[C@@H](CC(C)C)C(N)=O)[C@@H](C)O)[C@@H](C)CC)nn1)C(=O)NCC(=O)N[C@@H](CC(C)C)C(=O)N[C@@H](CC(C)C)C(=O)N[C@H](CCCCN)C(=O)N[C@@H](CCCNC(=N)N)C(=O)N[C@H](C(=O)N[C@H](CCCCN)C(=O)N[C@H](C(=O)N[C@@H](CC(C)C)C(=O)N[C@@H](CC(C)C)C(N)=O)[C@@H](C)O)[C@@H](C)CC (stereo partly specified)
MIC [34]: 64 µM | MIC [35]: 128 µM | MIC [36]: 32 µM
